According to patent US8883183B2, “Medical devices incorporating collagen inhibitors” (Wake Forest University Health Sciences, priority 2008, dated 2014):

Legend:
[1] = test system: full thickness dermal incisions; test: Rat dorsal full thickness dermal incision wound healing model; assay type: in vivo
Text: A total of nine animals underwent surgery: three controls and six treatment animals. On each control animal four full thickness dermal incisions were made on the dorsum. The two anterior incisions were closed with uncoated 3-0 Vicryl and N-butyl-2-cyanoacrylate glue; the posterior incisions were closed with Vicryl alone. In the experimental animals four full thickness wounds were made on the dorsum; the two anterior incisions were closed uncoated Vicryl and a mixture of HF—Br and N-butyl-2-cyanoacrylate (0.5 cc of HF—Br was added to 0.5 cc of N-butyl cyanoacrylate glue) was applied topically to the closed wound. The two posterior wounds were closed with HF—Br coated 3-0 Vicryl. Two treatment animals and one control animal were then euthanized at 2, 6, and 12 weeks and soft tissue specimens were taken for analysis.
Soft tissue samples were harvested, embedded in paraffin and sectioned (5 μm). Sections were stained with Hematoxylin and Eosin (H&E) and Masson's Trichrome. Inflammation scores were recorded according to the method of Storch (Surgical Infections. 2002; 3: 89-98). The area of scar tissue deposition was approximated and calculated with light microscopy and a Zeiss™ digital image capture software system.
To evaluate levels of newly formed collagen, tissue samples were digested in 1M NaCl in 0.05M Tris. Salt soluble collagen was then bound with a Sircol™ dye detection system and content was measured with UV spectrophotometry at […]. Percent tissue masses of salt soluble collagen were higher in all week 2 samples.
Tensile strength of dermal wound tissue specimens is assessed by measuring the breaking point with a tensometer. Tissue specimens are harvested and analyzed immediately after animals are sacrificed. The specimens are attached to the tensometer and pressure is applied until the wound breaks. This breaking pressure is recorded as tensile strength.
Skin samples were harvested so that the plane of the scar would be perpendicular to the direction of force applied. Samples were frozen, re-thawed, and secured by clamps in an tensometer (Instron™ Norwood, Mass.). Force was then applied until samples broke. Ultimate tensile load, percent elongation, and stiffness were then calculated for three control and three HF—Br treated samples at 2 and 12 weeks. Averages were reported. Average stiffness, ultimate tensile load, and percent elongation for all tissue samples increased from 2 to 12 weeks (FIG. 9).

[2] = In vitro elution of halofuginone from coated Vicryl sutures into PBS; assay type: physicochemical; settings: UV spectroscopy at 243 nm
Experimental: To determine halofuginone elution, an in vitro elution study was performed. The release of halofuginone from coated Vicryl sutures into phosphate buffered saline (PBS) was used to estimate kinetics of drug release in vivo. A 2.5 cm segment of HF—Br coated Vicryl was placed in 1.5 mL of PBS and incubated at 37° C. At 5, 15, 30, and 45 minutes and 1, 2, 4, 8, 24, 48, 72, and 96 hours the segment was transferred into a new 1.5 mL aliquot of PBS, and the amount of halofuginone from the previous aliquot was measured with UV spectrophotometry at 243 nm. Data from UV spectrophotometry indicated a rapid release of HF—Br into PBS in vitro (FIG. 3). It was approximated that 90% of the total drug mass was released in 30 minutes and that the drug was nearly eliminated in 2 hours.

[3] = test system: alpha 1 collagen gene expression; test: Real time qPCR of alpha 1 collagen gene expression in wound border skin; assay type: in vivo, rat; settings: wounds treated topically, suture only animals
Text: To determine alpha 1 collagen gene expression (in suture only animals), 2 mm punch biopsies of skin were taken at the border of wounds adjacent to suture material. Samples were flash frozen, pulverized, and RNA was extracted with Trizol reagent. Real time qPCR was employed to measure gene expression using rat 1-alpha-2 collagen ampliset. Relative quantities of alpha 1 collagen gene expression were normalized with expression levels of 18S and GAPDH RNA. These values were then divided by the relative quantity of alpha 1 collagen gene expression in normal skin.

paranasal sinus wounds = test: Rat model of paranasal sinus surgery, HF-coated cellulose pack; assay type: in vivo; settings: topical administration
Experimental: Topical application of a halofuginone/cellulose derivative packing was tested for the prevention of scar tissue formation in the paranasal sinuses of a rat. The paired, anatomically identical paranasal sinuses of the rat allow one side to serve as a control and the other to serve as experimental. The control sinus was packed with an uncoated cellulose derivative packing material (Merocel). The other (experimental) sinus cavity was packed with a halofuginone bromide coated cellulose derivative compound packing material. A second set of animals underwent paranasal sinus surgery and no packing material of any kind was placed. Both packing preparations provide adequate homeostasis and require removal, as in the human clinical scenario. The surgical wound was closed using absorbable subcuticular sutures. Sinus surgery was performed in the rat and packs placed for 5 days. Sinus specimens were harvested and analyzed.
In vivo elution studies were performed on packs removed 5 days post-operatively, placed in 10 mL PBS for 8 hrs, and 300 uL aliquot placed in spectrophotometer (blanked with a control pack removed post-operatively).

O=C(CC1NCCCC1O)Cn1cnc2cc(Br)c(Cl)cc2c1=O (centres unmarked) [HF—Br, 7-bromo-6-chloro-3-[3-(3-hydroxy-2-piperidinyl)-2-oxopropyl]-4(3H)]
inflammation scores ([1]; H&E, weeks 2, 6 and 12, vs controls): consistently lower
cross sectional areas of collagen deposition (scar) ([1]; Masson's trichrome, vs controls): consistently smaller
salt soluble collagen levels ([1]; Sircol assay, treated vs control, each time point): No significant difference
difference in collagen staining between treated and control ([1]; Week 2): 2.7 fold
wound area approximation ([1]; Week 2): 322,107 μm^2
gross appearance of wounds ([1]; later time points, vs control): No significant difference in appearance
stiffness, ultimate tensile load and percent elongation (tensile strength) ([1]; rat, in vivo): No significant difference
gross appearance of wounds (erythema and induration) ([1]; two weeks, vs control wounds): More erythema and induration were visible in control wounds
release of HF—Br into PBS in vitro [2]: rapid drug release
1-alpha-2 collagen gene expression [3]: inhibited
post-operative scar formation (paranasal sinus wounds): reduced post-operative scar formation
